Measured values as given in patent US20210292340A1, “CELL NECROSIS INHIBITOR, PREPARATION METHOD THEREFOR AND USE THEREOF” (SHANGHAI INSTITUTE OF ORGANIC CHEMISTRY, CHINESE ACADEMY OF …, priority 2018, published 2021).

The compounds below were run on Jurkat (FADD−/−) cells (assay: Inhibition of TNF-induced programmed Jurkat (FADD−/−) cell necrosis (Cell Titer-Glo)). Conditions: Homo sapiens, Jurkat, 20 h, TNF 10 ng/mL, intracellular ATP level, read-out: Cellular IC50 (M) Jurkat (FADD−/−).
Format: cell-based, human
Method: Two replicate wells were set for each concentration of each compound.
Jurkat (FADD^−/−) cells (human-derived peripheral blood leukemia T cell line, with FADD gene knocked out) were cultured in vitro. After growing to logarithmic growth phase, the cells were harvested, and centrifuged at 1000 rpm for 5 min. The supernatant was discarded, and the cells were resuspended in fresh medium and adjusted to a cell density of 5×10^5/mL. The cell suspension was added to the culture plate containing the drug (40 μL per well). In the treatment groups, 10 μL of TNF (tumor necrosis factor, final concentration 10 ng/mL) diluted with the cell culture medium was added to each well, and incubated for 20 h in a cell incubator (37° C., 5% CO2). Subsequently, 50 μL of Cell Titer-Glo solution was added to each well and incubated at room temperature for 10 min. Then, the luminescence was detected on BioTek plate reader to measure the intracellular ATP level. The effect of the test compounds in inhibiting TNF-induced cell necrosis was calculated from the full-activity well and background well (with the untreated DMSO control well as 100% cell viability), and the half inhibitory concentration (IC50) of the compound was calculated by Graphpad Prism statistical software.
With `CN1C(=O)[C@@H](NC(=O)c2cnc(Cc3ccccc3)o2)COc2cc3[nH]c(C(F)(F)F)nc3cc21` [RIP1-079] the IC50 was > 2e-06 M.
In the case of `CN1C(=O)[C@@H](NC(=O)c2nc(Cc3ccccc3)n[nH]2)COc2cc3[nH]c(=O)[nH]c3cc21` [RIP1-076], the IC50 was > 2e-06 M.
`CN1C(=O)[C@@H](NC(=O)c2cncc(Oc3ccccc3)c2)COc2ccc3ncccc3c21` [RIP1-193] showed an IC50 of 2.95e-07 M.
`CN1C(=O)[C@@H](NC(=O)c2cn(Cc3ccccc3)cn2)CSc2cc3[nH]ncc3cc21` [RIP1-016] gave an IC50 of 2.3e-10 M.
Compound `CN1C(=O)[C@@H](NC(=O)c2n[nH]c(Cc3ccc(F)cc3)n2)COc2ccc3cnccc3c21` [RIP1-164] has an IC50 of 3.3e-09 M.
For `CN1C(=O)[C@@H](NC(=O)c2cc(Oc3ccccc3)ccn2)COc2cc3occc3cc21` [RIP1-180], the IC50 was 2.66e-10 M.
For `CN1C(=O)[C@@H](NC(=O)c2cn(Cc3ccccc3)cn2)COc2cc3[nH]ncc3cc21` [RIP1-022], the IC50 was 5.66e-10 M.
`CN1C(=O)[C@@H](NC(=O)c2cc(Oc3cccnc3)ccn2)COc2cc3ncoc3cc21` [RIP1-212] gave an IC50 of 1.81e-08 M.
Compound `CN1C(=O)[C@@H](NC(=O)c2ncn(Cc3ccccc3)n2)COc2cc3nccnc3cc21` [RIP1-128] has an IC50 of 4.83e-07 M.
`CN1C(=O)[C@@H](NC(=O)c2ncn(Cc3ccccc3)n2)CSc2cc3[nH]ccc3cc21` [RIP1-008] was tested, and the IC50 was 2.4e-10 M.
`Cc1ccc(Cc2cc(C(=O)N[C@H]3COc4cc5[nH]nnc5cc4N(C)C3=O)nn2C)cc1` [RIP1-141] gave an IC50 of 2.19e-08 M.
With `CN1C(=O)[C@@H](NC(=O)c2cncn2Cc2ccccc2)CSc2cc3[nH]ncc3cc21` [RIP1-017] the IC50 was > 2e-06 M.
Work on `CN1C(=O)[C@@H](NC(=O)c2cn(Cc3ccccc3)cn2)COc2cc3nccnc3cc21` [RIP1-129] yielded an IC50 of 7.94e-07 M.
In the case of `CN1C(=O)[C@@H](NC(=O)c2ccnc(Oc3ccccc3)n2)COc2ccc3ncccc3c21` [RIP1-199], the IC50 was 4.76e-05 M.
Work on `CN1C(=O)[C@@H](NC(=O)c2n[nH]c(Cc3ccccc3)n2)CSc2cc3[nH]ncc3cc21` [RIP1-013] yielded an IC50 of 5.3e-10 M.
`CN1C(=O)[C@@H](NC(=O)c2n[nH]c(Cc3ccc(F)cc3)n2)COc2cc3occc3cc21` [RIP1-174] gave an IC50 of 1.3e-08 M.
In the case of `Cc1ccc(Cc2cc(C(=O)N[C@H]3COc4cc5[nH]c(C)nc5cc4N(C)C3=O)n(C)n2)cc1` [RIP1-073], the IC50 was > 2e-06 M.
Compound `CN1C(=O)[C@@H](NC(=O)c2cc(Nc3ccccc3)ccn2)COc2ccc3ncccc3c21` [RIP1-200] has an IC50 of 8.18e-08 M.
In the case of `CN1C(=O)[C@@H](NC(=O)c2nnc(Cc3ccccc3)[nH]2)COc2cc3[nH]ncc3cc21` [RIP1-023], the IC50 was 2.54e-09 M.
In the case of `CN1C(=O)[C@@H](NC(=O)c2ncn(Cc3ccccc3)n2)CSc2cc3c(ccn3C)cc21` [RIP1-012], the IC50 was 1.22e-09 M.
With `CN1C(=O)[C@@H](NC(=O)c2cn(Cc3ccccc3)nn2)CSc2cc3[nH]ccc3cc21` [RIP1-042] the IC50 was 1.93e-09 M.
`CN1C(=O)[C@@H](NC(=O)c2nnc(Cc3ccccc3)[nH]2)COc2cc3[nH]ccc3cc21` [RIP1-112] was tested, and the IC50 was 1.22e-09 M.
With `CN1C(=O)[C@@H](NC(=O)c2n[nH]c(Cc3ccccc3F)n2)COc2cc3ncoc3cc21` [RIP1-206] the IC50 was 8.18e-10 M.
For `Cc1nc2cc3c(cc2[nH]1)OC[C@H](NC(=O)c1cnnn1Cc1ccccc1)C(=O)N3C` [RIP1-064], the IC50 was > 2e-06 M.
For `CN1C(=O)[C@@H](NC(=O)c2nnc(Cc3ccccc3F)[nH]2)COc2cc3ocnc3cc21` [RIP1-219], the IC50 was 6.75e-10 M.
For `CN1C(=O)[C@@H](NC(=O)c2nc(Cc3ccccc3)n(C)n2)COc2cc3ncoc3cc21` [RIP1-220], the IC50 was > 2e-05 M.
For `O=C(N[C@H]1COc2ccc3cccnc3c2NC1=O)c1n[nH]c(Cc2ccccc2)n1` [RIP1-149], the IC50 was > 2e-06 M.
`CN1C(=O)[C@@H](NC(=O)c2nnc(Cc3ccccc3)[nH]2)COc2cc3[nH]nnc3cc21` [RIP1-143] was tested, and the IC50 was 2.06e-07 M.
For `CN1C(=O)[C@@H](NC(=O)c2cn(Cc3ccccc3)cn2)COc2cc3[nH]ccc3cc21` [RIP1-114], the IC50 was 8.46e-10 M.
`CN1C(=O)[C@@H](NC(=O)c2n[nH]c(Cc3c(F)cc(F)cc3F)n2)COc2cc3occc3cc21` [RIP1-173] was tested, and the IC50 was 7e-08 M.
With `CN1C(=O)[C@@H](NC(=O)c2cc(Cc3ccccc3)on2)CSc2cc3[nH]ccc3cc21` [RIP1-003] the IC50 was 6.91e-10 M.
Compound `Cc1ccc(Cc2cc(C(=O)N[C@H]3CSc4cc5c(ccn5C)cc4N(C)C3=O)nn2C)cc1` [RIP1-056] has an IC50 of 4.15e-08 M.
In the case of `CN1C(=O)[C@@H](NC(=O)c2cccc(Oc3ccccc3)n2)COc2ccc3ncccc3c21` [RIP1-194], the IC50 was 7.28e-06 M.
With `CN1C(=O)[C@@H](NC(=O)c2n[nH]c(Cc3cccc(F)c3)n2)COc2cc3ncoc3cc21` [RIP1-222] the IC50 was 5.62e-09 M.
For `CN1C(=O)[C@@H](NC(=O)c2n[nH]c(Cc3c(F)cc(F)cc3F)n2)COc2ccc3ncccc3c21` [RIP1-169], the IC50 was 1.13e-07 M.
`CN1C(=O)[C@@H](NC(=O)c2cc(Oc3ccccc3)ccn2)COc2cc3[nH]nnc3cc21` [RIP1-181] showed an IC50 of 5.92e-10 M.
With `Cc1ccc(Cc2cc(C(=O)N[C@H]3COc4cc5occc5cc4N(C)C3=O)nn2C)cc1` [RIP1-124] the IC50 was 2.09e-08 M.
Compound `CN1C(=O)[C@@H](NC(=O)c2nnc(Oc3ccccc3)[nH]2)COc2cc3ncoc3cc21` [RIP1-211] has an IC50 of 2.72e-07 M.
Work on `CN1C(=O)[C@@H](NC(=O)c2n[nH]c(Cc3ccccc3F)n2)COc2ccc3ncccc3c21` [RIP1-170] yielded an IC50 of 1.74e-09 M.
For `CN1C(=O)[C@@H](NC(=O)c2ncn(Cc3ccccc3)n2)CSc2cc3[nH]ncc3cc21` [RIP1-020], the IC50 was 2.3e-10 M.
Compound `CN1C(=O)[C@@H](NC(=O)c2cn(Cc3ccccc3)nn2)CSc2cc3c(ccn3C)cc21` [RIP1-048] has an IC50 of 5.1e-09 M.
In the case of `CN1C(=O)[C@@H](NC(=O)c2cc(Cc3ccccc3)on2)CSc2cc3c(ccn3C)cc21` [RIP1-009], the IC50 was 1.08e-09 M.
`CN1C(=O)[C@@H](NC(=O)c2cc(Oc3ccccc3)ccn2)COc2cc3ncoc3cc21` [RIP1-186] gave an IC50 of 7.52e-10 M.
`CN1C(=O)[C@@H](NC(=O)c2n[nH]c(Cc3ccccc3F)n2)COc2cc3nccnc3cc21` [RIP1-208] gave an IC50 of 1.49e-09 M.
Work on `CN1C(=O)[C@@H](NC(=O)c2cc(Cc3ccccc3)ccn2)COc2cc3ncoc3cc21` [RIP1-221] yielded an IC50 of 7.31e-09 M.
`CN1C(=O)[C@@H](NC(=O)c2cn(Cc3ccccc3)cn2)CSc2cc3c(ccn3C)cc21` [RIP1-055] showed an IC50 of 2.29e-09 M.
In the case of `CN1C(=O)[C@@H](NC(=O)c2cc(Cc3ccccc3)on2)CSc2cc3[nH]nc(Cl)c3cc21` [RIP1-029], the IC50 was 1.2e-10 M.
`CN1C(=O)[C@@H](NC(=O)c2nnn(Cc3ccccc3)n2)CSc2cc3[nH]ccc3cc21` [RIP1-043] was tested, and the IC50 was 1.31e-10 M.
`CC(=O)n1ncc2cc3c(cc21)SC[C@H](NC(=O)c1cc(Cc2ccccc2)on1)C(=O)N3C` [RIP1-018] was tested, and the IC50 was 2.7e-10 M.
`Cc1nc2cc3c(cc2[nH]1)OC[C@H](NC(=O)c1nnc(Cc2ccccc2)o1)C(=O)N3C` [RIP1-070] gave an IC50 of 2.15e-06 M.
With `CN1C(=O)[C@@H](NC(=O)c2nccc(Oc3ccccc3)n2)COc2cc3nccnc3cc21` [RIP1-215] the IC50 was 3.45e-07 M.
For `CN1C(=O)[C@@H](NC(=O)c2cc(Oc3c(F)cccc3F)ccn2)COc2ccc3ncccc3c21` [RIP1-198], the IC50 was 4.57e-09 M.
`Cc1ccc(Cc2cc(C(=O)N[C@H]3CSc4cc5[nH]ccc5cc4N(C)C3=O)n(C)n2)cc1` [RIP1-044] showed an IC50 of 1.91e-08 M.
Work on `CN1C(=O)[C@@H](NC(=O)c2n[nH]c(Cc3c(F)cccc3F)n2)COc2ccc3cnccc3c21` [RIP1-161] yielded an IC50 of 8.6e-09 M.
For `CN1C(=O)[C@@H](NC(=O)c2cn(Cc3ccccc3)nn2)CSc2cc3c(ccn3Cc3ccccc3)cc21` [RIP1-084], the IC50 was > 2e-06 M.
Work on `COc1ncnc2cc3c(cc12)N(C)C(=O)[C@@H](NC(=O)c1n[nH]c(Cc2cc(F)cc(F)c2)n1)CO3` [RIP1-176] yielded an IC50 of 6.9e-09 M.
Work on `CN1C(=O)[C@@H](NC(=O)c2nnc(Cc3ccccc3)[nH]2)CSc2cc3occc3cc21` [RIP1-039] yielded an IC50 of 4.5e-10 M.
For `CN1C(=O)[C@@H](NC(=O)c2ncn(Cc3ccccc3)n2)CSc2cc3occc3cc21` [RIP1-037], the IC50 was 1.29e-10 M.
`CN1C(=O)[C@@H](NC(=O)c2cn(Cc3ccccc3)cn2)CSc2ccc3ncccc3c21` [RIP1-094] was tested, and the IC50 was 2e-09 M.
With `CN1C(=O)[C@@H](NC(=O)c2n[nH]c(Cc3ccccc3)n2)COc2ccc3cccnc3c21` [RIP1-148] the IC50 was 1.07e-08 M.
With `CN1C(=O)[C@@H](NC(=O)c2cn(Cc3ccccc3)nn2)CSc2ccc3ncccc3c21` [RIP1-095] the IC50 was 9.85e-09 M.
`CN1C(=O)[C@@H](NC(=O)c2cnnn2Cc2ccccc2)CSc2cc3[nH]ccc3cc21` [RIP1-051] was tested, and the IC50 was > 2e-06 M.
`CN1C(=O)[C@@H](NC(=O)c2cc(Cc3ccccc3)on2)CSc2ccc3ncccc3c21` [RIP1-096] was tested, and the IC50 was 1.38e-09 M.
Work on `CN1C(=O)[C@@H](NC(=O)c2nnc(Cc3ccccc3)[nH]2)CSc2ccc3cnccc3c21` [RIP1-102] yielded an IC50 of 9e-10 M.
Work on `CN1C(=O)[C@@H](NC(=O)c2n[nH]c(Cc3ccccc3)n2)COc2cc3ncoc3cc21` [RIP1-182] yielded an IC50 of 8.16e-10 M.
Work on `CN1C(=O)[C@@H](NC(=O)c2n[nH]c(Cc3c(F)cccc3F)n2)COc2ccc3ncccc3c21` [RIP1-168] yielded an IC50 of 1.1e-08 M.
With `CN1C(=O)[C@@H](NC(=O)c2cc(Oc3ccccc3)ccn2)COc2cc3[nH]ccc3cc21` [RIP1-189] the IC50 was 1.93e-10 M.
With `Cc1ccc(Cc2cc(C(=O)N[C@H]3CSc4cc5[nH]ccc5cc4N(C)C3=O)nn2C)cc1` [RIP1-045] the IC50 was > 2e-06 M.
`CN1C(=O)[C@@H](NC(=O)c2n[nH]c(Cc3c(F)cccc3F)n2)COc2cc3[nH]nnc3cc21` [RIP1-166] was tested, and the IC50 was 2.98e-07 M.
`CN1C(=O)[C@@H](NC(=O)c2cnc(Cc3ccccc3)o2)CSc2cc3c(ccn3Cc3ccccc3)cc21` [RIP1-087] was tested, and the IC50 was > 2e-06 M.

Same assay, conditions: TNF 10 ng/mL, 20 h, intracellular ATP level; read-out: Cellular IC50 (M) Jurkat (FADD−/−)
Work on `CN1C(=O)[C@@H](NC(=O)c2n[nH]c(Cc3ccccc3F)n2)COc2ccc3ncccc3c21` [RIP1-170] yielded an IC50 of 3e-09 M.
